From US10485769B2, “Cholesteryl ester transfer protein (CETP) inhibition in the treatment of cancer” (KING ABDULLAH UNIVERSITY OF SCIENCE AND TECHNOLOGY, priority 2015, dated 2019)

Legend:
MCF-7 cells = test: Mitochondrial Outer Membrane Potential (MOMP) by flow cytometry; format: cell-based, human; conditions: 10 μM PL, AP; 100 mM H2O2 positive control; versus untreated cells
Description: FIG. 2: Mode of induction in MCF-7 cells after treatment with AP and PL was determined by measuring changes in MOMP and levels of apoptosis-associated proteins. The cells were incubated with 10 μM AP and PL for different time intervals to capture the timeline of apoptosis induction in MCF-7 cells. The changes in MOMP were measured using flow cytometry after treating MCF-7 cells with PL and AP for 1, 2 and 4 h (A). The alteration in expression of several apoptosis-associated proteins were determined using western blotting after incubating MCF-7 cells for 1, 2, 4, 6 h with PL (C, E) and AP (D. F).
The changes in Mitochondrial Outer Membrane Potential (MOMP) and proteins involved in the apoptotic cascade were assessed (FIG. 2).

MCF-7 CETP siRNA cells = test: MMP, caspase-3/7 activity and apoptosis in CETP knockdown MCF-7 cells; format: cell-based, human; conditions: 25 μM tamoxifen, 24 h, CETP knockout cells
Description: FIG. 10: The effect of CETP mRNA silencing on MMP (A), Capase-3/7 activity (B) and apoptosis in MCF-7 (C) and BJ (D) untransfected, cntl siRNA and CETP knockout cells after treatment with 10 μM PL or AP. Values represent the means±SD of three independent experiments.
FIG. 12: The effect of CETP mRNA knockout on Capase-3/7 activity (A) and apoptosis (B) in MCF-7 cntl siRNA and CETP knockout cells after treatment with 25 μM tamoxifen for 24 h. Values represent the means±SD of three independent experiments.
Since, as shown above, CETP is required for optimal growth of MCF-7 cells, we further hypothesized that CETP may help cancer cell to resist/escape apoptotic signals thus preventing cell death. Several apoptotic markers such as MOMP, phosphatidylserine exposure and caspase-3/7 activity were tested to establish a link between CETP and apoptosis.
Next, we intended to see if CETP silencing increased sensitivity of MCF-7 cells to apoptosis.
To test if effect of CETP knockout on apoptosis in MCF-7 is limited to AP, we treated the CETP knockout MCF-7 cells with tamoxifen (a known first line drug for breast cancer treatment). […] This observation was not limited to PL and AP as similar observations were made in CETP knockdown cells treated with tamoxifen (FIG. 12).

SMILES | MOMP, fluorescence in the FL-2 channel (MCF-7 cells) | caspase-3/7 activity (MCF-7 CETP siRNA cells)
OO [H2O2] | lower fluorescent values | 
CC/C(=C(\c1ccccc1)c1ccc(OCCN(C)C)cc1)c1ccccc1 [tamoxifen] |  | significant increase
